The results in this text go back to PubChem BioAssay (NCI).

SMILES strings stand for the structures.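 Results reflect a 48-hour exposure of cells in 96-well plates to compound at five concentrations. Abbreviation: GI50, concentration required for 50% inhibition of growth. TGI marks complete inhibition of growth.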

What all share (assay): inhibition of tumour cell growth, NCI panel, 48 h
Assay [1] deals with A498 renal.
Assay [2] concerns A549 NSCLC.
Assay [3] concerns EKVX NSCLC.
For assay [4], the system named is HCC-2998 colon.
The subject of assay [5] is HCT-116 colon.
The subject of assay [6] is HL-60(TB) leukemia.
In assay [7] the test system is MOLT-4 leukemia.
The test system of assay [8] is NCI-H226 lung.
Assay [9] has as its system SR leukemia.
In assay [10] the test system is UO-31 renal.

Take `CC(C)(C)NC/C(=C\c1ccccc1)C(=O)c1ccccc1`: the GI50 in assay [1] was 1.8 µM; in assay [2], 2.75 µM; in assay [3], 3.29 µM; in assay [4], 1.74 µM; in [5], 1.18 µM; in [6], 2.59 µM. Further, the GI50 in assay [7] is 2.23 µM; in assay [8], 2.2 µM; in assay [9], 1.67 µM; in [10], 1.41 µM. Besides, the TGI is 3.64 µM in [1]; 8.23 µM in [2]; 13.6 µM in assay [3]; 3.35 µM in [4]; 2.58 µM in [5]; 14.1 µM in assay [6]. For the same compound, the TGI was 45.9 µM in assay [7], 11.2 µM in assay [8], 8.68 µM in assay [9] and 2.88 µM in assay [10].

As for `O=S(=O)(Nc1ccc2ccccc2c1)c1ccc(-c2cnc(C3CC3)o2)cc1`, the GI50 in assay [1] was 0.462 µM; in [2], 1.74 µM; in [3], 2.76 µM; in assay [4] it was 1.48 µM; in assay [5], 0.746 µM; in [6], 0.407 µM. In addition, the GI50 in assay [7] is 0.873 µM; in [8] it was 3.99 µM; in assay [9], 0.377 µM; in [10], 1.68 µM. Moreover, the TGI in assay [1] was 5.28 µM; in assay [2], more than 100 µM; in [3] it was 59.9 µM; in assay [4], 6.06 µM; in [5], 12.7 µM; in assay [6] it was 6.99 µM. For the same compound, the TGI in [7] was more than 100 µM; in assay [8], 20.4 µM; in assay [9], more than 100 µM; in assay [10], 18.8 µM.

Take `O=C(Cn1c(C(=O)c2ccccc2)nc2ccccc21)c1ccc(F)cc1`: the GI50 in assay [1] was 4.86 µM; in [2], 22.9 µM; in assay [3], 21.1 µM; in [4], 6.41 µM; in assay [5], 3.28 µM; in [6], 1.65 µM. Moreover, the GI50 in assay [7] was 2.49 µM; in assay [8], more than 100 µM; in [9], 1.21 µM; in assay [10] it was more than 43.8 µM. Moreover, the TGI in [1] is more than 43.7 µM; in assay [2] it was more than 100 µM; in assay [3] it was more than 100 µM; in [4], more than 100 µM; in assay [5], more than 100 µM; in assay [6] it was 5.9 µM. Further, the results for the TGI in assay [7], in assay [8] and in assay [10] were more than 28.1 µM, more than 100 µM and more than 100 µM, respectively.

For the compound `CC(=N)N(C)O`, the TGI in assay [1], in assay [2], in assay [3], in [4], in assay [5] and in assay [6] was more than 100 µM each time. The TGI in assay [7] was more than 100 µM; in [8], more than 100 µM; in assay [9] it was 68.4 µM; in assay [10], more than 100 µM.

Consider `CCC[CH2][Sn]([CH2]CCC)([O]C(=O)c1cc(F)cc(F)c1)[O][Sn]([CH2]CCC)([CH2]CCC)[O]C(=O)c1cc(F)cc(F)c1`, for which the GI50 was 1.43 µM in [1]; 9.78 µM in assay [2]; 1.31 µM in [3]; 1.71 µM in assay [4]; 1.35 µM in assay [5]; 0.374 µM in assay [6]. The GI50 in [7] was 0.318 µM; in assay [8], 1.45 µM; in assay [9], 0.372 µM; in [10], 1.66 µM. Besides, the TGI was determined as 2.83 µM in assay [1]; 21.8 µM in [2]; 2.59 µM in assay [3]; 3.32 µM in [4]; 2.63 µM in assay [5]; 2.23 µM in assay [6]. For the same compound, the TGI in assay [7] stood at 2.15 µM; in assay [8] it was 2.81 µM; in assay [9] it was 4.32 µM; in assay [10] it was 3.02 µM.

For `COC(=O)C1=C(C(=O)OC)C2OC1c1cc3ccccc3cc12`, the TGI in assay [1] came out at 36.7 µM; in [2], 37 µM; in assay [3], 17.6 µM; in [4], 23.4 µM; in assay [5], 4.29 µM; in assay [6], 2.22 µM. In addition, the TGI came out at 3.22 µM in assay [7], 11.6 µM in assay [8], 3.55 µM in assay [9] and 2.91 µM in assay [10].

As to `COc1ccc2c(c1)N(CCO)C1=C(C(=O)OC1)C2c1ccccc1` (centres undefined), the GI50 in assay [1] was 0.841 µM; in assay [2], 2.12 µM; in [3] it was 2.39 µM; in assay [4] it was 3.21 µM; in [5], 1.97 µM; in [6] it was 1.15 µM. In addition, the GI50 was 3.63 µM in assay [7], 1.55 µM in assay [8], 1.69 µM in assay [9] and 2.37 µM in assay [10]. Moreover, the TGI in assay [1] was 3.11 µM; in [2], more than 50 µM; in assay [3], more than 50 µM; in assay [4], more than 50 µM; in [5] it was 15.6 µM; in [6], 2.84 µM. The TGI in assay [7] was more than 50 µM; in assay [8], 19 µM; in [9], more than 50 µM; in [10] it was more than 50 µM.

Consider `O=C(Nc1nc(-c2ccc(Cl)cc2)nc2c1sc(=S)n2-c1ccccc1)C(F)(F)F`, for which the GI50 in [1] is 1.77 µM; in [2], 3.88 µM; in [3] it was 3.83 µM; in assay [4], 10.3 µM; in assay [5], 2.63 µM; in [6], more than 100 µM. Further, the GI50 in assay [7] was more than 100 µM; in [8], 2.89 µM; in assay [9] it was 4.76 µM; in [10] it was 1.87 µM. Also, the TGI is 7.8 µM in assay [1]; 18 µM in assay [2]; 31.8 µM in assay [3]; more than 100 µM in assay [4]; 8.04 µM in assay [5]; more than 100 µM in assay [6]. In addition, the TGI is more than 100 µM in [7], 9.61 µM in assay [8], 20.1 µM in assay [9] and 4.04 µM in assay [10].

In the case of `O=C1C(=O)N(c2cccc(C(F)(F)F)c2)C(=O)C(=O)C1c1nc2ccccc2s1`, the TGI in assay [1] is more than 100 µM; in [2] it was more than 100 µM; in assay [3], more than 100 µM; in assay [4], more than 100 µM; in assay [5], more than 100 µM; in [6], 59.8 µM. For the same compound, the TGI was more than 100 µM in assay [7], more than 100 µM in assay [8], 83.6 µM in [9] and more than 100 µM in assay [10].
